By IC50 is commonly meant the midpoint of a concentration-inhibition curve.

SMILES strings stand for the structures.

We go through 25 compounds from patent US7704995B2 (Exelixis, Inc., priority 2003, dated 2010).

The first assay concerns the target T1, Chk1 (Homo sapiens, UniProt O14757).
T1 construct: purchased Upstate Biotechnology
T1 sequence (O14757 1-476): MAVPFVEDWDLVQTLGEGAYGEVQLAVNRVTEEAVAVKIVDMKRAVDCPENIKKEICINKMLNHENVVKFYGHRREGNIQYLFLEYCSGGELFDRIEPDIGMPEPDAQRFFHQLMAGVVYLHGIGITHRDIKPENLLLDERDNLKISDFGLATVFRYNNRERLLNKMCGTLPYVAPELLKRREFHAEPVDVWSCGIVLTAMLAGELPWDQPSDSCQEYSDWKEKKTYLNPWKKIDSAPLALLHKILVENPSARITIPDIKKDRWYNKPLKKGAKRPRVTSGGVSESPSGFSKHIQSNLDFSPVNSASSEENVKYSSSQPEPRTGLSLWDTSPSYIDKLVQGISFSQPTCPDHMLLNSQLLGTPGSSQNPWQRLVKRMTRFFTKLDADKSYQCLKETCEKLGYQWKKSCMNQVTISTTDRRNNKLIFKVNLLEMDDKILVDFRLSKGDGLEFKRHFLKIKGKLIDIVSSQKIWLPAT
Briefly: Chk1 kinase assay: incorporation of γ-33P ATP into immobilized myelin basic protein. In kind it is biochemical. Conditions: Table 11, Chk1 only; class symbols A-D; read-out: Chk1 IC50. An outline of the steps: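 Immobilized-MBP radiometric kinase assay, room temperature for 1 h; ATP 10 μM (Chk1, 10 nM enzyme) or 30 μM (Chk2, 20 nM enzyme) with 33P tracer. Values are IC50s, with Ki derived from them.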
Take `Nc1ncc(-c2cccc(C(=O)NCCc3ccc(F)cc3)c2)nc1C(=O)N[C@H]1CCCNC1` [Example 925, 3-amino-6-[3-({[2-(4-fluorophenyl)ethyl]amino}carbonyl)phenyl]-N-[(3S)-piperidin-3-yl]pyrazine-2-carboxamide]: the IC50 is less than 50 nM. Same read-out and setting: to `Nc1ncc(-c2cccc(C(=O)NCc3cccc(-c4ccccc4)c3)c2)nc1C(=O)N[C@H]1CCCNC1` [Example 1034, 3-amino-6-(3-{[(biphenyl-3-ylmethyl)amino]carbonyl}phenyl)-N-[(3S)-piperidin-3-yl]pyrazine-2-carboxamide] belongs less than 50 nM. Still for that read-out and setting: to `Nc1ncc(-c2cccc(CNC(=O)c3ccccc3Cl)c2)nc1-c1nc([C@H]2CCCNC2)n[nH]1` [Example 940, N-{[3-(5-amino-6-{3-[(3S)-piperidin-3-yl]-1H-1,2,4-triazol-5-yl}pyrazin-2-yl)phenyl]methyl}-2-chlorobenzamide] belongs less than 50 nM; to `Nc1ncc(-c2cccc(C(=O)NCc3ccc(F)c(Cl)c3)c2)nc1C(=O)N[C@H]1CCCCNC1` [Example 1023, 3-amino-N-[(3S)-azepan-3-yl]-6-[3-({[(3-chloro-4-fluorophenyl)methyl]amino}carbonyl)phenyl]pyrazine-2-carboxamide], less than 50 nM. The same measure, in the same setting: to `Nc1ncc(-c2cccc(CNC(=O)Nc3ccc(F)cc3F)c2)nc1C(=O)N[C@H]1CCCNC1` [Example 914, 3-amino-6-{3-[({[(2,4-difluorophenyl)amino]carbonyl}amino)methyl]phenyl}-N-[(3S)-piperidin-3-yl]pyrazine-2-carboxamide] belongs less than 50 nM; to `Nc1ncc(-c2cccc(C(=O)NCc3c(F)ccc(Cl)c3F)c2)nc1C(=O)N[C@H]1CCCNC1` [Example 1000, 3-amino-6-[3-({[(3-chloro-2,6-difluorophenyl)methyl]amino}carbonyl)phenyl]-N-[(3S)-piperidin-3-yl]pyrazine-2-carboxamide], less than 50 nM; to `Nc1ncc(-c2cccc(C(=O)NCc3ccc(Cl)cc3F)c2)nc1C(=O)N[C@H]1CCCCNC1` [Example 996, 3-amino-N-[(3S)-azepan-3-yl]-6-[3-({[(4-chloro-2-fluorophenyl)methyl]amino}carbonyl)phenyl]pyrazine-2-carboxamide], less than 50 nM. With `Cc1cc(C(=O)NCc2cccc(-c3cnc(N)c(C(=O)N[C@H]4CCCNC4)n3)c2)no1` [Example 989, 3-amino-6-[3-({[(5-methylisoxazol-3-yl)carbonyl]amino}methyl)phenyl]-N-[(3S)-piperidin-3-yl]pyrazine-2-carboxamide], the half-maximal inhibitory concentration (IC50) is less than 50 nM.

Still in this assay, the particulars now being: Table 11; Chk1 only; read-out: Chk1 IC50.
For the compound `NC(=O)c1nc(-c2cccc(C(=O)NCc3ccccc3)c2)cnc1N` [Example 667, 3-amino-6-(3-{[(phenylmethyl)amino]carbonyl}phenyl)pyrazine-2-carboxamide], the IC50 is 50 to 1000 nM. Still for that read-out and setting: the result for `Nc1ncc(-c2cccc(CO)c2)nc1-c1nc(-c2ccncc2)n[nH]1` [Example 606, {3-[5-amino-6-(3-pyridin-4-yl-1H-1,2,4-triazol-5-yl)pyrazin-2-yl]phenyl}methanol] reads less than 50 nM; that for `CCNNC(=N)c1nc(-c2cccc(C(=O)NC3CCc4ccccc43)c2)cnc1N` (stereo not shown) [Example 718, 3-{5-amino-6-[(2-ethylhydrazino)(imino)methyl]pyrazin-2-yl}-N-(2,3-dihydro-1H-inden-1-yl)benzamide], 1000 to 10000 nM. On the same count and under the same terms, the result for `CNC(=O)c1nc(-c2cccc(CNC3CCCC3)c2)cnc1N` [Example 500, 3-amino-6-{3-[(cyclopentylamino)methyl]phenyl}-N-methylpyrazine-2-carboxamide] reads 50 to 1000 nM; that for `CNC(=O)c1nc(-c2cccc(CNC3CCc4c(O)cccc43)c2)cnc1N` (stereo not shown) [Example 515, 3-amino-6-(3-{[(4-hydroxy-2,3-dihydro-1H-inden-1-yl)amino]methyl}phenyl)-N-methylpyrazine-2-carboxamide], less than 50 nM. The same measure, in the same setting: to `CNC(=O)c1nc(-c2cccc(CNCc3cc(Br)ccc3F)c2)cnc1N` [Example 444, 3-amino-6-[3-({[(5-bromo-2-fluorophenyl)methyl]amino}methyl)phenyl]-N-methylpyrazine-2-carboxamide] belongs 50 to 1000 nM; to `NCCNC(=O)c1nc(-c2cccc(C(=O)NCc3ccccc3)c2)cnc1N` [Example 616, 3-amino-N-(2-aminoethyl)-6-(3-{[(phenylmethyl)amino]carbonyl}phenyl)pyrazine-2-carboxamide], 50 to 1000 nM; to `Nc1ncc(-c2cccc(C(=O)NCc3ccccc3)c2)nc1C(=O)NCCCNC(=O)c1ccncc1` [Example 650, 3-amino-6-(3-{[(phenylmethyl)amino]carbonyl}phenyl)-N-{3-[(pyridin-4-ylcarbonyl)amino]propyl}pyrazine-2-carboxamide], 1000 to 10000 nM. Take `Nc1ncc(-c2cccc(C(=O)NCc3ccccc3)c2)nc1C(=O)N1CCN(c2ccc(F)cc2)CC1` [Example 574, 3-(5-amino-6-{[4-(4-fluorophenyl)piperazin-1-yl]carbonyl}pyrazin-2-yl)-N-(phenylmethyl)benzamide]: the IC50 was no less than 10000 nM. Same read-out and setting: to `CNC(=O)c1nc(-c2cccc(-c3nc(-c4ccccc4)c[nH]3)c2)cnc1N` [Example 442, 3-amino-N-methyl-6-[3-(4-phenyl-1H-imidazol-2-yl)phenyl]pyrazine-2-carboxamide] belongs 50 to 1000 nM. In the case of `Nc1ncc(-c2cccc(C(=O)NCc3ccccc3)c2)nc1C(=O)NCC1CCNCC1` [Example 565, 3-amino-6-(3-{[(phenylmethyl)amino]carbonyl}phenyl)-N-(piperidin-4-ylmethyl)pyrazine-2-carboxamide], the IC50 fell in the range of 50 to 1000 nM.

Staying with this assay, now noted: read-out: Chk1 IC50.
As for `CNC(=O)c1nc(-c2cccc(C(=O)NCC3CCN(C(=O)OC(C)(C)C)CC3)c2)cnc1N` [Example 134, 1,1-dimethylethyl 4-({[(3-{5-amino-6-[(methylamino)carbonyl]pyrazin-2-yl}phenyl)carbonyl]amino}methyl)piperidine-1-carboxylate], the half-maximal inhibitory concentration (IC50) was in the range of 50 to 1000 nM. Still for that read-out and setting: to `CNC(=O)c1nc(-c2cccc(C(=O)NCc3ccncc3)c2)cnc1N` [Example 123, 3-amino-N-methyl-6-(3-{[(pyridin-4-ylmethyl)amino]carbonyl}phenyl)pyrazine-2-carboxamide] belongs 50 to 1000 nM; to `CNC(=O)c1nc(-c2cccc(C(=O)NCCc3ccccc3OC)c2)cnc1N` [Example 130, 3-amino-N-methyl-6-{3-[({2-[2-(methyloxy)phenyl]ethyl}amino)carbonyl]phenyl}pyrazine-2-carboxamide], 50 to 1000 nM.

Take `CCN1CCN(CCOc2cccc(-c3cnc(N)c(C(=O)NC)n3)c2)CC1` [Example 190, 3-amino-6-(3-{[2-(4-ethylpiperazin-1-yl)ethyl]oxy}phenyl)-N-methylpyrazine-2-carboxamide]: the IC50 is 50 to 1000 nM. For `CNC(=O)c1nc(-c2cccc(C(=O)NCc3cnc(C)cn3)c2)cnc1N` [Example 120, 3-amino-N-methyl-6-[3-({[(5-methylpyrazin-2-yl)methyl]amino}carbonyl)phenyl]pyrazine-2-carboxamide], the 50% inhibitory concentration (IC50) is 1000 to 10000 nM.

`CNC(=O)c1nc(-c2cccc(C(=O)NC(C)(C)C)c2)cnc1N` [Example 139, 3-amino-6-(3-{[(1,1-dimethylethyl)amino]carbonyl}phenyl)-N-methylpyrazine-2-carboxamide]: the concentration for half-maximal inhibition (IC50) was 1000 to 10000 nM.
